Experiment [1] has as its target T1, IRAK4 (Homo sapiens (Human), UniProt Q9NWZ3). Nature of the experiment: IRAK4 Degradation HiBiT Assay. The settings on record: HiBiT-tagged Jurkat cells, 4 hrs; for Dmax: Jurkat; for DC50: read-out: Cellular IRAK4 HiBiT: DC50. On the technique in general: HiBiT is a short tag that completes a luciferase, so light tracks the accessible tagged protein.
Target sequence in this assay (Q9NWZ3 whole entry): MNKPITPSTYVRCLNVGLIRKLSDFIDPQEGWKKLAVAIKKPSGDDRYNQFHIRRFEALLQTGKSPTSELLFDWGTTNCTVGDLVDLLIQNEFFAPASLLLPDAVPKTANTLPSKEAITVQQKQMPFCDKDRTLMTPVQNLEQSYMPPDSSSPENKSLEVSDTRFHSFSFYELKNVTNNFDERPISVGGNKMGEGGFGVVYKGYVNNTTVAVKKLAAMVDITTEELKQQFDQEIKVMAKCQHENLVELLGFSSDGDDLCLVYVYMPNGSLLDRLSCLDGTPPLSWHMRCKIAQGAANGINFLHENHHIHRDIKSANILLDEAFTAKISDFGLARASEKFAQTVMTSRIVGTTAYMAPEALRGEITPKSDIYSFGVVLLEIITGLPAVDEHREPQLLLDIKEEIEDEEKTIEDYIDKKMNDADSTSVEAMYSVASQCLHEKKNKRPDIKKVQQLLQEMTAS
In experiment [2] the target is T1, IRAK4. The experiment in a line: IRAK4 Biochemical HTRF Kinase Assay. The settings on record: read-out: IRAK4 HTRF biochemical: IC50. An outline of the steps: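 HTRF KinEASE STK S1 format measuring IRAK4 phosphorylation of biotinylated peptide; reaction solution of 5 μM STK-S1, 10 mM ATP, 10 mM MgCl2 added (stock, to 10 μl final), 90 min at ambient temperature, detection 60 min. IC50 from sixteen-point duplicate curves by non-linear regression.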
Target sequence in this assay (Q9NWZ3 whole entry, species assumed): as the sequence (Q9NWZ3 whole entry) above

Setting [3] is: read-out: Cellular IRAK4 HiBiT: Dmax, Table 5, multiple runs.
Setting [4] is: read-out: Cellular IRAK4 HiBiT: Dmax, Table 4.

These results are taken from patent US12528814B2, “Bifunctional degraders of interleukin-1 receptor-associated kinases and therapeutic use thereof” (NURIX THERAPEUTICS, INC., priority 2020, dated 2026).

Like-named read-outs stand apart in the source and are kept apart here.

For `CC(C)Nc1cc(-c2ccc3cc(C#N)cnn23)ncc1-c1nnc(N2CCC3(CCN(C(=O)CNc4cccc5c4C(=O)N(C4CCC(=O)NC4=O)C5=O)CC3)CC2)s1` (stereo not shown) [Example 82, 7-(5-(5-(9-((2-(2,6-dioxopiperidin-3-yl)-1,3-dioxoisoindolin-4-yl)glycyl)-3,9-diazaspiro[5.5]undecan-3-yl)-1,3,4-thiadiazol-2-yl)-4-(isopropylamino)pyridin-2-yl)pyrrolo[1,2-b]pyridazine-3-carbonitrile], in experiment [1] (setting [3]), the Dmax is 61%. The DC50 in experiment [1] (Table 5, multiple runs) was determined as 72.8 nM. Further, in experiment [2] (Table 5, multiple runs), the IC50 worked out at 3.1 nM.

Regarding `CNc1cc(-c2ccc3cc(C#N)cnn23)ncc1-c1nnc([C@H]2CC[C@H](NC(=O)C3CCN(c4cccc5c4C(=O)N(C4CCC(=O)NC4=O)C5=O)CC3)CC2)s1` (stereo partly shown) [Example 139, N-((1r,4r)-4-(5-(6-(3-cyanopyrrolo[1,2-b]pyridazin-7-yl)-4-(methylamino)pyridin-3-yl)-1,3,4-thiadiazol-2-yl)cyclohexyl)-1-(2-(2,6-dioxopiperidin-3-yl)-1,3-dioxoisoindolin-4-yl)piperidine-4-carboxamide], the Dmax in experiment [1] (setting [3]) stood at 24%. Further, the DC50 in experiment [1] (Table 5, multiple runs) is 10.6 nM. Also, the half-inhibitory concentration (IC50) in experiment [2] (Table 5, multiple runs) was 0.9 nM.

For `CNc1cc(-c2ccc3cc(C#N)cnn23)ncc1-c1nnc(C23CCC(NC(=O)CCOCCOCCOCCNc4cccc5c4C(=O)N(C4CCC(=O)NC4=O)C5=O)(CC2)CC3)s1` (stereo not shown) [Example 110, N-(4-(5-(6-(3-cyanopyrrolo[1,2-b]pyridazin-7-yl)-4-(methylamino)pyridin-3-yl)-1,3,4-thiadiazol-2-yl)bicyclo[2.2.2]octan-1-yl)-3-(2-(2-(2-((2-(2,6-dioxopiperidin-3-yl)-1,3-dioxoisoindolin-4-yl)amino)ethoxy)ethoxy)ethoxy)propanamide], the Dmax in experiment [1] (setting [3]) is 93%. The half-maximal degradation concentration (DC50) in experiment [1] (Table 5, multiple runs) turned out to be 34.2 nM. The 50% inhibitory concentration (IC50) in experiment [2] (Table 5, multiple runs) came out at 0.7 nM.

Take `CNc1cc(-c2ccc3cc(C#N)cnn23)ncc1-c1nnc([C@H]2CC[C@@H](NC(=O)CCCCCNc3ccc4c(c3)C(=O)N(C3CCC(=O)NC3=O)C4=O)CC2)s1` (stereo partly shown) [Example 114, N-((1s,4s)-4-(5-(6-(3-cyanopyrrolo[1,2-b]pyridazin-7-yl)-4-(methylamino)pyridin-3-yl)-1,3,4-thiadiazol-2-yl)cyclohexyl)-6-((2-(2,6-dioxopiperidin-3-yl)-1,3-dioxoisoindolin-5-yl)amino)hexanamide]: the Dmax in experiment [1] (setting [3]) turned out to be 82%. Moreover, in experiment [1] (Table 5, multiple runs), the 50% degradation concentration (DC50) amounted to 72.6 nM. Further, in experiment [2] (Table 5, multiple runs), the half-inhibitory concentration (IC50) is 2.9 nM.

As to `CNc1cc(-c2ccc3cc(C#N)cnn23)ncc1-c1nnc([C@H]2CC[C@@H](NC(=O)[C@H]3C[C@@H](OCCNc4cccc5c4C(=O)N(C4CCC(=O)NC4=O)C5=O)C3)CC2)s1` (stereo partly drawn) [Example 113, (1s,3S)—N-((1s,4S)-4-(5-(6-(3-cyanopyrrolo[1,2-b]pyridazin-7-yl)-4-(methylamino)pyridin-3-yl)-1,3,4-thiadiazol-2-yl)cyclohexyl)-3-(2-((2-(2,6-dioxopiperidin-3-yl)-1,3-dioxoisoindolin-4-yl)amino)ethoxy)cyclobutane-1-carboxamide], the Dmax in experiment [1] (setting [3]) stood at 76%. In addition, the DC50 in experiment [1] (Table 5, multiple runs) is 32 nM. The IC50 in experiment [2] (Table 5, multiple runs) stood at 1.2 nM.

As for `CC(C)Nc1cc(-c2ccc3cc(C#N)cnn23)ncc1-c1nnc(N2CCN(C(=O)CNc3cccc4c3C(=O)N(C3CCC(=O)NC3=O)C4=O)CC2)s1` (stereo not shown) [Example 31, 7-(5-(5-(4-((2-(2,6-dioxopiperidin-3-yl)-1,3-dioxoisoindolin-4-yl)glycyl)piperazin-1-yl)-1,3,4-thiadiazol-2-yl)-4-(isopropylamino)pyridin-2-yl)pyrrolo[1,2-b]pyridazine-3-carbonitrile], the Dmax in experiment [1] (setting [4]) and in experiment [1] (setting [3]) was 39% each time. Also, the half-maximal degradation concentration (DC50) in experiment [1] (Table 4) came out at 106 nM; in experiment [1] (Table 5, multiple runs) it was 105 nM. Further, the IC50 in experiment [2] (Table 4) was 1.8 nM; in experiment [2] (Table 5, multiple runs) it was 1.7 nM.

Turning to `CNc1cc(-c2ccc3cc(C#N)cnn23)ncc1-c1nnc(C23CCC(NC(=O)CCCCCNc4ccc5c(c4)C(=O)N(C4CCC(=O)NC4=O)C5=O)(CC2)CC3)s1` (stereo not shown) [Example 108, N-(4-(5-(6-(3-cyanopyrrolo[1,2-b]pyridazin-7-yl)-4-(methylamino)pyridin-3-yl)-1,3,4-thiadiazol-2-yl)bicyclo[2.2.2]octan-1-yl)-6-((2-(2,6-dioxopiperidin-3-yl)-1,3-dioxoisoindolin-5-yl)amino)hexanamide], the Dmax in experiment [1] (setting [3]) amounted to 70%. The 50% degradation concentration (DC50) in experiment [1] (Table 5, multiple runs) amounted to 45.7 nM. Further, the half-maximal inhibitory concentration (IC50) in experiment [2] (Table 5, multiple runs) turned out to be 1.4 nM.

As to `CNc1cc(-c2ccc3cc(C#N)cnn23)ncc1-c1nnc(C23CCC(NC(=O)CN4CCC5(CC4)CN(c4ccc6c(c4)C(=O)N(C4CCC(=O)NC4=O)C6=O)C5)(CC2)CC3)s1` (stereo not shown) [Example 104, N-(4-(5-(6-(3-cyanopyrrolo[1,2-b]pyridazin-7-yl)-4-(methylamino)pyridin-3-yl)-1,3,4-thiadiazol-2-yl)bicyclo[2.2.2]octan-1-yl)-2-(2-(2-(2,6-dioxopiperidin-3-yl)-1,3-dioxoisoindolin-5-yl)-2,7-diazaspiro[3.5]nonan-7-yl)acetamide], the Dmax in experiment [1] (setting [3]) came out at 77%. The DC50 in experiment [1] (Table 5, multiple runs) amounted to 49.9 nM. Moreover, in experiment [2] (Table 5, multiple runs), the concentration for half-maximal inhibition (IC50) worked out at 1.5 nM.

In the case of `CNc1cc(-c2ccc3cc(C#N)cnn23)ncc1-c1nnc([C@H]2CC[C@@H](NC(=O)C3CCN(c4cccc5c4C(=O)N(C4CCC(=O)NC4=O)C5=O)CC3)CC2)s1` (stereo partly shown) [Example 135, N-((1s,4s)-4-(5-(6-(3-cyanopyrrolo[1,2-b]pyridazin-7-yl)-4-(methylamino)pyridin-3-yl)-1,3,4-thiadiazol-2-yl)cyclohexyl)-1-(2-(2,6-dioxopiperidin-3-yl)-1,3-dioxoisoindolin-4-yl)piperidine-4-carboxamide], in experiment [1] (setting [3]), the Dmax is 46%. The DC50 in experiment [1] (Table 5, multiple runs) stood at 774 nM. Further, the IC50 in experiment [2] (Table 5, multiple runs) is 1 nM.

As to `CNc1cc(-c2ccc3cc(C#N)cnn23)ncc1-c1nnc(N2CCN(C(=O)C3CC4(CCN(c5ccc6c(c5)C(=O)N(C5CCC(=O)NC5=O)C6=O)C4)C3)CC2)s1` (stereo not shown) [Example 175, 7-(5-(5-(4-(6-(2-(2,6-dioxopiperidin-3-yl)-1,3-dioxoisoindolin-5-yl)-6-azaspiro[3.4]octane-2-carbonyl)piperazin-1-yl)-1,3,4-thiadiazol-2-yl)-4-(methylamino)pyridin-2-yl)pyrrolo[1,2-b]pyridazine-3-carbonitrile], the Dmax in experiment [1] (setting [3]) stood at 91%. Besides, the DC50 in experiment [1] (Table 5, multiple runs) worked out at 19.1 nM. The IC50 in experiment [2] (Table 5, multiple runs) came to 0.5 nM.

For the molecule `CC(C)Nc1cc(-c2ccc3cc(C#N)cnn23)ncc1-c1nnc(N2CCN(C3CCN(C(=O)c4ccc5c(c4)C(=O)N(C4CCC(=O)NC4=O)C5)CC3)CC2)s1` (stereo not shown) [Example 77, 7-(5-(5-(4-(1-(2-(2,6-dioxopiperidin-3-yl)-3-oxoisoindoline-5-carbonyl)piperidin-4-yl)piperazin-1-yl)-1,3,4-thiadiazol-2-yl)-4-(isopropylamino)pyridin-2-yl)pyrrolo[1,2-b]pyridazine-3-carbonitrile], in experiment [1] (setting [3]), the Dmax was 114%. The DC50 in experiment [1] (Table 5, multiple runs) was determined as 15.1 nM. The 50% inhibitory concentration (IC50) in experiment [2] (Table 5, multiple runs) stood at 0.5 nM.

With `Cc1ncsc1-c1ccc(CNC(=O)[C@@H]2C[C@@H](O)CN2C(=O)[C@@H](NC(=O)C2(F)CC2)C(C)(C)C)c(OCC(=O)N2CCC(C(=O)N3CCN(c4nnc(-c5cnc(-c6ccc7cc(C#N)cnn67)cc5NC(C)C)s4)CC3)CC2)c1` [Example 80, (2S,4R)—N-(2-(2-(4-(4-(5-(6-(3-cyanopyrrolo[1,2-b]pyridazin-7-yl)-4-(isopropylamino)pyridin-3-yl)-1,3,4-thiadiazol-2-yl)piperazine-1-carbonyl)piperidin-1-yl)-2-oxoethoxy)-4-(4-methylthiazol-5-yl)benzyl)-1-((S)-2-(1-fluorocyclopropane-1-carboxamido)-3,3-dimethylbutanoyl)-4-hydroxypyrrolidine-2-carboxamide], the Dmax in experiment [1] (setting [3]) came out at 115%. For the same molecule, in experiment [1] (Table 5, multiple runs), the half-maximal degradation concentration (DC50) worked out at 313 nM. For the same molecule, the IC50 in experiment [2] (Table 5, multiple runs) is 3.7 nM.

As for `CNc1cc(-c2ccc3cc(C#N)cnn23)ncc1-c1nnc(N2CCCC3(CN(C(=O)c4ccc5c(c4)C(=O)N(C4CCC(=O)NC4=O)C5=O)C3)C2)s1` (stereo not shown) [Example 124, 7-(5-(5-(2-(2-(2,6-dioxopiperidin-3-yl)-1,3-dioxoisoindoline-5-carbonyl)-2,6-diazaspiro[3.5]nonan-6-yl)-1,3,4-thiadiazol-2-yl)-4-(methylamino)pyridin-2-yl)pyrrolo[1,2-b]pyridazine-3-carbonitrile], the DC50 in experiment [1] (Table 5, multiple runs) was greater than 9980 nM. The half-maximal inhibitory concentration (IC50) in experiment [2] (Table 5, multiple runs) turned out to be 1.9 nM.

For `CNc1cc(-c2ccc3cc(C#N)cnn23)ncc1-c1nnc(N2CCC(NC[C@@H]3CCN(c4ccc5c(c4)n(C)c(=O)n5C4CCC(=O)NC4=O)C3)CC2)s1` (stereo partly drawn) [Example 93, 7-(5-(5-(4-((((3S)-1-(1-(2,6-dioxopiperidin-3-yl)-3-methyl-2-oxo-2,3-dihydro-1H-benzo[d]imidazol-5-yl)pyrrolidin-3-yl)methyl)amino)piperidin-1-yl)-1,3,4-thiadiazol-2-yl)-4-(methylamino)pyridin-2-yl)pyrrolo[1,2-b]pyridazine-3-carbonitrile], the DC50 in experiment [1] (Table 5, multiple runs) is greater than 9980 nM. Besides, in experiment [2] (Table 5, multiple runs), the half-maximal inhibitory concentration (IC50) was determined as 0.9 nM.

`CC(C)Nc1cc(-c2ccc3cc(C#N)cnn23)ncc1-c1nnc(N2CCN(CCCc3ccc4c(c3)CN(C3CCC(=O)NC3=O)C4=O)CC2)s1` (stereo not shown) [Example 27, 7-(5-(5-(4-(3-(2-(2,6-dioxopiperidin-3-yl)-1-oxoisoindolin-5-yl)propyl)piperazin-1-yl)-1,3,4-thiadiazol-2-yl)-4-(isopropylamino)pyridin-2-yl)pyrrolo[1,2-b]pyridazine-3-carbonitrile]: the Dmax in experiment [1] (setting [4]) and in experiment [1] (setting [3]) was 57% throughout. Also, the DC50 in experiment [1] (Table 4) is 70.6 nM; in experiment [1] (Table 5, multiple runs) it was 70.7 nM. Moreover, the concentration for half-maximal inhibition (IC50) in experiment [2] (Table 4) came out at 0.3 nM; in experiment [2] (Table 5, multiple runs), 1.2 nM.

Broadly, the Dmax is the greatest extent of degradation seen. The term DC50 denotes the concentration giving 50% degradation. For orientation: IC50 means the concentration that inhibits the measured activity by half.
